Laboratory results published in EP1914304A1 (priority 1998, dated 1999).

Legend:
[1] = test system: E. coli KY895 harboring HSV-1 TK mutant TKI 208 (Leu-170 to Val); test: Negative selection on AZT-selection medium; type: cell-based; details: 0.05 µg/mL of AZT, 1.0 µg/mL of dT
From the text: (§1) This screen is based upon the premise that mutants with increased ability to phosphorylate AZT relative to dT would be unable to form colonies on the AZT-selection medium. In particular, the product, AZT monophosphate would be further phosphorylated by the host cell's nonspecific nucleotide kinases, or possibly by the mutant TK, incorporated into bacterial DNA by host DNA polymerases, terminate DNA synthesis, and thus prevent replication of the host chromosome.
(§2) Briefly, the TK mutants were first grown as individual colonies on TK-selection medium (1.0 µg/mL of dT), and then replica plated onto AZT-selection medium (0.05 µg/mL of AZT, 1.0 µg/mL of dT). All other components in the AZT-selection medium were the same as the TK-selection medium.

[2] = test system: E. coli KY895 harboring HSV-1 TK mutant TKF 105 (Leu-170 to Ile); test: Negative selection on AZT-selection medium; type: cell-based; details: 0.05 µg/mL of AZT, 1.0 µg/mL of dT
From the text: as §1, §2

[3] = test system: E. coli KY895 harboring HSV-1 TK mutant F1611/R163H; test: Colony formation on acyclovir or AZT plates (secondary screen); type: cell-based; design: key: (++) indicates that the same number of colonies were observed as compared to control plates; (+) indicates that fewer (<20% those observed with pMCC) and generally smaller (~50°,% smaller diameter) colonies were observed as compared to control plates; (-) indicates that no colonies were observed; details: TK selection plates, 1 µg/mL thymidine + 1µg/mL acyclovir or 0.05 µg/mL AZT, 37°C, 16-24 hours
Description: (§3) […]. Mutant cultures were also spread onto duplicate TK selection and LB + carb^50 plates. One set of TK selection plates and LB + carb^50 plates were incubated at 42°C. All other plates were incubated at 37°C. After 16-24 hours the plates were scored.

[4] = test system: E. coli KY895 harboring HSV-1 TK mutant F161L; test: as above; type: cell-based; design: key: (++) indicates that the same number of colonies were observed as compared to control plates; (+) indicates that fewer (<20% those observed with pMCC) and generally smaller (~50°,% smaller diameter) colonies were observed as compared to control plates; (-) indicates that no colonies were observed; details: TK selection plates, 1 µg/mL thymidine + 1µg/mL acyclovir or 0.05 µg/mL AZT, 37°C, 16-24 hours
Description: as §3

[5] = test system: E. coli KY895 harboring HSV-1 TK mutant P155A/F161V; test: as above; type: cell-based; design: key: (++) indicates that the same number of colonies were observed as compared to control plates; (+) indicates that fewer (<20% those observed with pMCC) and generally smaller (~50°,% smaller diameter) colonies were observed as compared to control plates; (-) indicates that no colonies were observed; details: TK selection plates, 1 µg/mL thymidine + 1µg/mL acyclovir or 0.05 µg/mL AZT, 37°C, 16-24 hours
Description: as §3

[6] = test system: E. coli KY895 harboring HSV-1 TK mutant F161C; test: as above; type: cell-based; design: key: (++) indicates that the same number of colonies were observed as compared to control plates; (+) indicates that fewer (<20% those observed with pMCC) and generally smaller (~50°,% smaller diameter) colonies were observed as compared to control plates; (-) indicates that no colonies were observed; details: TK selection plates, 1 µg/mL thymidine + 1µg/mL acyclovir or 0.05 µg/mL AZT, 37°C, 16-24 hours
Description: as §3

[7] = test system: E. coli KY895 harboring pMCC (wild-type HSV-1 TK); test: as above; type: cell-based; design: key: (++) indicates that the same number of colonies were observed as compared to control plates; (+) indicates that fewer (<20% those observed with pMCC) and generally smaller (~50°,% smaller diameter) colonies were observed as compared to control plates; (-) indicates that no colonies were observed; details: TK selection plates, 1 µg/mL thymidine + 1µg/mL acyclovir or 0.05 µg/mL AZT, 37°C, 16-24 hours
Description: as §3

[8] = target: HSV-1 thymidine kinase mutant TKF 105 (Leu-170 to Ile) (Human herpesvirus 1, UniProt P06478, L170I); test: Kinetics of AZT phosphorylation by purified TK (preliminary experiments); type: biochemical, Herpes Simplex Virus Type 1; details: preliminary experiments with purified TKF 105 TK
Description: Briefly, crude bacterial extract was passed three times through a 7-mL bed-volume affinity column. The column was then washed sequentially using 30 mL each of buffer A [0.1 M Tris HCl, pH 7.5/5 mM dithiothreitol (DTT)/10% glycerol], buffer B (0.1M Tris-HCl, pH 7.5/0.5 M KCl/5 mM DTT/10% glycerol), and buffer A. TK was eluted using a 60-mL linear gradient of 0-600 µM dT in buffer C (0.3 M Tris HCl, pH 7.4/50 mM KCl/10% glycerol). Active fractions were pooled and dialyzed against three changes each of 2 liters of 50 mM Tris-HCl, pH 7.4/5 mM DTT/10% glycerol. Except in the final dialysis, all the above buffers contained 50 µg/mL of aprotinin and 2 µg/mL each of pepstatin and leupeptin.
Secondly, the kinetics of AZT phosphorylation by the two mutants was determined. Briefly, reactions were carried out in a final volume of 100 µl containing 50 mM Tris-HCl (pH 7.5), 5 mM ATP. […] The amount of radioactivity adsorbed to the disc was determined by scintillation spectroscopy. Km and Vmax values were determined by using the Cleland SUBIN program (Cleland, Methods Enz. 63:103-138, 1979). The values for kcat were calculated using the equation Vmax = kcat[E]0, where [E]o = total enzyme concentration. […]

[9] = test system: E. coli KY895 harboring HSV-1 TK mutant F1611; test: Colony formation on acyclovir or AZT plates (secondary screen); type: cell-based; details: TK selection plates, 1 µg/mL thymidine + 1µg/mL acyclovir or 0.05 µg/mL AZT, 37°C, 16-24 hours
Description: as §3

[10] = test system: E. coli KY895 harboring HSV-1 TK mutant R163P/H164Q; test: as above; type: cell-based; details: TK selection plates, 1 µg/mL thymidine + 1µg/mL acyclovir or 0.05 µg/mL AZT, 37°C, 16-24 hours
Description: as §3

[11] = test system: rat C6 glioblastoma cells transfected with TK mutant SR39, subcutaneous tumor; test: Mouse xenograft tumor model with prodrug treatment; type: in vivo, Nude mice; details: prodrug twice a day for 5 days from day 5; Figures 32-34
Description: (§4) Rat C6 glioblastoma cells were transfected with the stable expression vector pREP8D7:dualGFP as described above containing various TK mutants. […] Experiments were carried out to establish prodrug dosing levels for tumor ablation and efficacy of therapy. Nude mice (JAX Labs, Bar Harbor, Maine) were injected subcutaneously with 0.5 x10^6 transfected rat C6 cells. After 5 days, prodrugs (ACV and GCV) were administered twice a day for a further 5 days. Prodrug was given at either of two concentrations (shown as mg/kg). During this period and for an additional 6 days, tumor size was monitored by caliper measurement every other day. At the end of the period, mice were sacrificed and the tumors excised and weighed.

[12] = test system: rat C6 glioblastoma cells transfected with TK mutant 30, subcutaneous tumor; test: Mouse xenograft tumor model with prodrug treatment; type: in vivo, Nude mice; details: prodrug twice a day for 5 days from day 5; Figures 32-34
Description: as §4

Sequence of HSV-1 thymidine kinase mutant TKF 105 (Leu-170 to Ile) (P06478 whole entry L170I): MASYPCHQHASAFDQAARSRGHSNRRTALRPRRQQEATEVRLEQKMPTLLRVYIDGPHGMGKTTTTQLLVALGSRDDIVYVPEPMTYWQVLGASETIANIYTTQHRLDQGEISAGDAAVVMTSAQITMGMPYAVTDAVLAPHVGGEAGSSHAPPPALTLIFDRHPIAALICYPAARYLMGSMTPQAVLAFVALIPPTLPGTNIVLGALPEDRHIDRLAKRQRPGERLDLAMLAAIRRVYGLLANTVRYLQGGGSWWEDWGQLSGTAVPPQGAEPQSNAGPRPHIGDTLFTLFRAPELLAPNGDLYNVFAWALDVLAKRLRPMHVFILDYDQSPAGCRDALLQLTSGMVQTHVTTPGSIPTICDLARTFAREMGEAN

Row | SMILES | colony formation on AZT-selection medium [1] | colony formation on AZT-selection medium [2] | colony formation on nucleoside analogue plates [3] | colony formation on nucleoside analogue plates [4] | colony formation on nucleoside analogue plates [5] | colony formation on nucleoside analogue plates [6] | colony formation on nucleoside analogue plates [7] | Km [8] [µM] | colony formation on nucleoside analogue plates [9] | colony formation on nucleoside analogue plates [10] | tumor reduction (tumor diameter, final tumor weight) [11] | tumor reduction (tumor diameter, final tumor weight) [12]
1 | Cc1cn([C@H]2C[C@H](N=[N+]=[N-])[C@@H](CO)O2)c(=O)[nH]c1=O [AZT, 3' azido-3' thymidine] | not on the AZT-selection medium | not on the AZT-selection medium | ++ | ++ | + ((+) indicates that fewer (<20% those observed with pMCC) and generally smaller (~50°,% smaller diameter) colonies were observed as compared to control plates) | - | ++ | 3.7 | + ((+) indicates that fewer (<20% those observed with pMCC) and generally smaller (~50°,% smaller diameter) colonies were observed as compared to control plates) | + ((+) indicates that fewer (<20% those observed with pMCC) and generally smaller (~50°,% smaller diameter) colonies were observed as compared to control plates) |  | 
2 | Nc1nc2c(ncn2COCCO)c(=O)[nH]1 [acyclovir] |  |  | ++ | ++ | ++ | + ((+) indicates that fewer (<20% those observed with pMCC) and generally smaller (~50°,% smaller diameter) colonies were observed as compared to control plates) | ++ |  | + ((+) indicates that fewer (<20% those observed with pMCC) and generally smaller (~50°,% smaller diameter) colonies were observed as compared to control plates) | + ((+) indicates that fewer (<20% those observed with pMCC) and generally smaller (~50°,% smaller diameter) colonies were observed as compared to control plates) | significant tumor reduction | significant tumor reduction
